# In patent US20240115527A1, “CXCR1/CXCR2 INHIBITORS FOR USE IN TREATING MYELOFIBROSIS” (Icahn School of Medicine at Mount Sinai, priority 2020, published 2024):
# Legend:
# Format in all cases: cell-based, human
# [1] = system: co-cultures of MF MNC and stromal cells; assay: ELISA of IL-8 and VEGF in conditioned medium of co-cultures of MF MNC and splenic stromal cells
# Text: FIGS. 6A, 6B, 6C, 6D, and 6E illustrate that a CXCR1/CXCR2 inhibitor reverses effects of IL-8 on micro-environmental cells. […] N splenic AC=normal splenic adherent cells. nBM MNC=non-adherent bone marrow mononuclear cells. MNC=mononuclear cells. […] FIGS. 6D and 6E illustrate that addition of CXCR1/CXCR2 inhibitor Ladx decreased the levels of IL-8 (FIG. 6D) and VEGF (FIG. 6E) in conditioned medium harvested from co-cultures of MF MNC and stromal cells.
# MF CD34+ cells = assay: Colony forming assay (CFU-GM) of cultured MF CD34+ cells with IL-8
# Text: FIGS. 5A, 5B. 5C, 5D, and 5E illustrate that a CXCR1/CXCR2 inhibitor reverses effects of IL-8 on MF CD34^+ cell colony formation. […] CFU-GM=colony-forming unit-granulocyte-macrophage. FIGS. 5B and 5C illustrate that IL-8 increased CFU-GM colony formation by MF CD34^+ cells in a dose dependent fashion and that the effects of IL-8 were inhibited by treatment with Ladx. FIG. 5B. Normal cells. FIG. 5C. MF cells. […] Con=control. IL-8 concentrations increase from left to right. […] P values were as follows: w/o Ladx: Con vs IL-8—10 ng: 0.159332; Con vs IL-8—20 ng: 0.011976; Con vs IL-8—50 ng: 0.00262; Con vs IL-8—100 ng: 0.00042; w/ 10 μM Ladx: Con vs Ladx: 0.315782; IL-8—10 ng vs plus Ladx: 0.295851; IL-8—20 ng vs plus Ladx: 0.077726; IL-8—50 ng vs plus Ladx: 0.031355; IL-8—100 ng vs plus Ladx: 0.081595.
# normal CD34+ cells = assay: Hematopoietic colony formation by normal CD34+ cells with IL-8; details: addition of ladarixin, FIG. 5B
smiles,measurement,setting,value
"C[C@@H](C(=O)NS(C)(=O)=O)c1ccc(OS(=O)(=O)C(F)(F)F)cc1 [Ladarixin, R(-)-2-[(4′-trifluoromethanesulfonyloxy)phenyl]-N-methanesulfonyl propionamide]",IL-8 levels in co-cultures (conditioned medium),[1]; FIG. 6D,decreased
same,VEGF levels in co-cultures (conditioned medium),[1]; FIG. 6E,decreased
same,effect on IL-8 increased CFU-GM colony formation by MF samples with the highest expression of CXCR1/CXCR2,"MF CD34+ cells; 10 μM Ladx, FIG. 5E",corrected
same,effect on IL-8 increased numbers of MF CFU-GM colonies,"MF CD34+ cells; addition of ladarixin, FIG. 5C",blunted
same,hematopoietic colony formation by normal CD34+ cells,normal CD34+ cells,did not affect
